In PMC8607231, “Generation of KS-133 as a Novel Bicyclic Peptide with a Potent and Selective VIPR2 Antagonist Activity that Counteracts Cognitive Decline in a Mouse Model of Psychiatric Disorders” (Frontiers in Pharmacology, 2021):
Where a SMILES comes first, the peptide text is derived from it. Bridges are numbered along the chain shown (N, C = ends).

Legend:
[1] = Peptide stability in rat plasma (RP-HPLC); assay type: in vitro ADME
Procedure: Each peptide (10 mM, 1 μl) was incubated with rat plasma (20 μl) prepared in-house. Immediately after mixing with plasma and after 24 h of incubation at 37°C, 80% acetonitrile (200 μl) was added to extract VIpep-3 and acetonitrile (200 μl) was added to extract KS-132, KS-133(monocyclic), and KS-133. The mixture was stored for 10 min on ice and then centrifuged at 20,000 × g for 10 min at 4°C. The supernatant was recovered and directly applied to RP-HPLC to determine the remaining amount of unmodified peptides in the sample.
The stability of peptides was evaluated in rat plasma. A peptide was incubated in rat plasma at 37°C for 0 and 24 h and the remaining amount of peptide was determined by RP-HPLC. By comparison with the peak area of the peptide, the remaining amount of the peptide after plasma incubation was estimated. […] KS-133(monocyclic) may form a pseudo bicyclic structure by ionic bond interaction between side chains of Lys and Asp.

human PAC1 = biological target: T1, human PAC1 (Homo sapiens, UniProt P41586); assay: Calcium influx assay, antagonist activity against PACAP-PAC1 signaling; assay type: cell-based; details: ligand PACAP (35 nM) at EC80; CHO-K1 cells; n = 4 wells, ± S.E.M; read-out: Ca influx assay [IC50 (nM)] PAC1
T1 construct: host or cells: CHO-K1
T1 sequence (P41586 21-468): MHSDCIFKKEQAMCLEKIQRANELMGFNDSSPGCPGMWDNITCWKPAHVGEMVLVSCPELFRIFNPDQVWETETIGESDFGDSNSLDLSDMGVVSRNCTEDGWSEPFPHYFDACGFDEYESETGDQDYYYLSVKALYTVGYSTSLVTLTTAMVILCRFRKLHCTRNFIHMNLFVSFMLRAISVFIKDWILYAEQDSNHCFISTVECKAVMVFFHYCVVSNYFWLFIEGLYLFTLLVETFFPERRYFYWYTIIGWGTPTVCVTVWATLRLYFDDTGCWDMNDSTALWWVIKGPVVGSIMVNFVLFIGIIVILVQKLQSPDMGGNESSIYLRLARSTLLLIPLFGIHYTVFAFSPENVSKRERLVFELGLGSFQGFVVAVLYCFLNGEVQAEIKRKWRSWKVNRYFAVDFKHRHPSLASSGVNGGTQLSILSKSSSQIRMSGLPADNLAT
Procedure: (§1) Evaluation of antagonist activities of peptides against VIP-VIPR1, VIP-VIPR2, and PACAP-PAC1 signaling pathways and agonistic activity of KS-133 at VIPR2 was carried out by Eurofins DiscoverX (Fremont, CA, United States). Intracellular calcium mobilization was monitored using a calcium-sensitive dye loaded in CHO-K1 cells expressing human VIPR1 (ITEM 86-0030P-2243AN), VIPR2 (ITEM 86-0030P-2244AN), and PAC1 (ITEM 86-0030P-2066AN). The cells were preincubated with antagonistic peptides for 30 min at room temperature in the dark. After addition of the ligand at EC80, calcium mobilization was immediately monitored by FLIPR Tetra for 2 min. Cyclic AMP production in CHO-K1 cells expressing human VIPR2 was evaluated using HitHunter® cAMP assays (antagonist mode: ITEM 86-0007P-2362AN; agonist mode: ITEM 86-0007P-2362AG). The cells were preincubated with antagonistic peptides for 30 min at room temperature. After addition of the ligand at EC80, cells were further incubated for 30 min at room temperature. Cells were lysed and the cAMP content of the cell lysate was determined by the β-galactosidase-based enzyme fragment complementation assay ([Eglen, 2002]). IC50 values were estimated by the following equation: IC50 = 10^[Log(A/B) × (50–D)/(C–D) + Log(B)], where A is the concentration at >50% inhibition, B is the concentration at <50% inhibition, C is the inhibition rate at concertation A, and D is the inhibition rate at concertation B.
(§2) First, the antagonistic activities of parental VIpep-3, KS-132, KS-133 (monocyclic) (no bridging between Lys^7 and Asp^11), and KS-133 against human VIPR1, VIPR2, and PAC1 were evaluated by a calcium influx assay. After antagonistic peptide treatment for 30 min, ligand at a concentration of EC80 was added to the cells and then calcium signaling was measured.
(§3) FIGURE 3 Antagonistic/agonistic activities of peptides in the calcium influx and cAMP assays. For evaluation of the antagonistic activity, the cells were preincubated with antagonistic peptides for 30 min. In the calcium influx assay, after addition of ligand at EC80, calcium mobilization was monitored immediately (see details in the Methods section) (n = 4 wells for each treatment). In the cAMP assay, after a 30 min incubation with the ligand at EC80, cAMP production in cells was measured (see details in the Methods section) (n = 4 wells for each treatment).

human VIPR1 = biological target: T2, human VIPR1 (Homo sapiens, UniProt P32241); assay: Calcium influx assay, antagonist activity against VIP-VIPR1 signaling; assay type: cell-based; details: ligand VIP (25 nM) at EC80; CHO-K1 cells; n = 4 wells, ± S.E.M; read-out: Ca influx assay [IC50 (nM)] VIPR1
T2 construct: host or cells: CHO-K1
T2 sequence (P32241 31-457): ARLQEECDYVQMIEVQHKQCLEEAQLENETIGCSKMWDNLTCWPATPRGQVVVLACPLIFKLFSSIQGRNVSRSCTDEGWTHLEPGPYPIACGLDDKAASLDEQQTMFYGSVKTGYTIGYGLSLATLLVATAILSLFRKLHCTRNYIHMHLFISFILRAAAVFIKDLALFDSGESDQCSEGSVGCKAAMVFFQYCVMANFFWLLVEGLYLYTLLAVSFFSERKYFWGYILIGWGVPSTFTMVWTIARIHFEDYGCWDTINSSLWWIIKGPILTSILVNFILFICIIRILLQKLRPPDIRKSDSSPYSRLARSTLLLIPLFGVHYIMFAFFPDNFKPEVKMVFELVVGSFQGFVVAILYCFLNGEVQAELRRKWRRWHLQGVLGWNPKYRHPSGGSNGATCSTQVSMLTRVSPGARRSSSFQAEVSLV
Procedure: as §1, §2, §3

[2] = rat plasma, immediately after mixing

Stability in rat plasma ([1]; 37°C, 24 h): highly stable for at least up to 24 h
RP-HPLC peak area, Input (NT) ([1]; no plasma treatment): 161695
RP-HPLC peak area, incubation time 24 h ([1]; rat plasma, 37°C, 24 h): 163537
remaining at 24 h, 0.476 mM ([1]; rat plasma, 37°C, 24 h, read-out: Residual rate, incubation time 24 h): 99%
RP-HPLC peak area, immediately after mixing [1, 2]: 165254
Residual rate, immediately after mixing [1, 2]: 100%
IC50 (human PAC1): > 5000 nM
IC50 (human VIPR1): > 5000 nM
SMILES: CC[C@H](C)[C@H](NC(=O)[C@H](CC(C)C)NC(=O)[C@@H]1CC(=O)NCCCC[C@@H]2NC(=O)[C@@H]3CCCN3C(=O)[C@H](CC(C)C)NC(=O)[C@H](Cc3ccc(O)cc3)NC(=O)[C@@H]3CCCN3C(=O)[C@@H]3CCCN3C(=O)[C@@H](NC(C)=O)CSSC[C@H](NC(=O)[C@H](CC(C)C)NC(=O)[C@H](Cc3ccc(O)cc3)NC2=O)C(=O)N1)C(N)=O [KS-133, Ac-c[Cys-Pro-Pro-Tyr-Leu-Pro-c(Lys-Tyr-Leu-Cys]-Asp)-Leu-Ile-NH2] (Ac-CPPYLPKYLCDLI-NH2; disulfide 1-10; lactam 7-11)
